Measured values published in ChEMBL document CHEMBL5131475, “Metallo-β-lactamases inhibitor fisetin attenuates meropenem resistance in NDM-1-producing Escherichia coli” (Eur J Med Chem, 2022).
In brackets after ≈: the same amount, converted by molar mass. Activity calls are given as the source filed them. The rule behind the calls is not given here.

Key:
Escherichia coli [1] = test: Antibacterial activity against NDM-1 negative Escherichia coli ATCC25922 isolates assessed as meropenem MIC incubated for 18 to 24 hrs by CLSI based broth microdilution method; assay type: functional; conditions: time 18-24 hrs
Escherichia coli [2] = test: Synergistic antibacterial activity against pET28a NDM-1 positive Escherichia coli BL21(DE3) isolates assessed as fractional Inhibitory concentration index incubated for 18 to 24 hrs in presence of spectinomycin by CLSI based broth microdilution method; assay type: functional; conditions: time 18-24 hrs
Escherichia coli [3] = test: Synergistic antibacterial activity against NDM-1 positive Escherichia coli ZC-YN3 isolates assessed as fractional Inhibitory concentration index incubated for 18 to 24 hrs in presence of ampicillin by CLSI based broth microdilution method; assay type: functional; conditions: time 18-24 hrs
Escherichia coli [4] = test: Synergistic antibacterial activity against pET28a NDM-1 positive Escherichia coli BL21(DE3) isolates assessed as fractional Inhibitory concentration index incubated for 18 to 24 hrs in presence of cefotaxime by CLSI based broth microdilution method; assay type: functional; conditions: time 18-24 hrs
[5] = Inhibition of metallo-beta-lactamase NDM-9 (unknown origin) using nitrocefin as substrate preincubated for 15 min followed by substrate addition and measured after 15 min by microplate reader assay; set-up: species or system Bacteria
Escherichia coli [6] = test: Antibacterial activity against NDM-1 positive Escherichia coli ZC-YN3 isolates assessed as ciprofloxacin MIC incubated for 18 to 24 hrs by CLSI based broth microdilution method; assay type: functional; conditions: time 18-24 hrs
Escherichia coli [7] = test: Synergistic antibacterial activity against NDM-1 positive MCR1 carrying Escherichia coli ZJ487 isolates assessed as fractional Inhibitory concentration index incubated for 18 to 24 hrs in presence of meropenem by CLSI based broth microdilution method; assay type: functional; conditions: time 18-24 hrs
Escherichia coli [8] = test: Synergistic antibacterial activity against pET28a NDM-1 positive Escherichia coli BL21(DE3) isolates assessed as fractional Inhibitory concentration index incubated for 18 to 24 hrs in presence of florfenicol by CLSI based broth microdilution method; assay type: functional; conditions: time 18-24 hrs
Bacteria [9] = test: Binding affinity to NDM-1 (unknown origin) assessed as binding free energy by fluorescence quenching method
Escherichia coli [10] = test: Antibacterial activity against pET28a-NDM-1 positive Escherichia coli BL21(DE3) isolates assessed as kanamycin MIC incubated for 18 to 24 hrs by CLSI based broth microdilution method; assay type: functional; conditions: time 18-24 hrs
Bacteria [11] = test: Inhibition of NDM-1 activity (unknown origin) in presence of zinc ion
Escherichia coli [12] = test: Synergistic antibacterial activity against NDM-1 positive Escherichia coli ZC-YN3 isolates assessed as fractional Inhibitory concentration index incubated for 18 to 24 hrs in presence of colistin by CLSI based broth microdilution method; assay type: functional; conditions: time 18-24 hrs
Mus musculus = test: Synergistic antibacterial activity in BALB/c mouse infected with NDM-1 positive Escherichia coli ZJ487 assessed as increase in survival rate at 50 mg/kg, sc administered every 12 hrs and measured after 96 hrs post infection in presence of meropenem; assay type: functional
Escherichia coli [13] = test: Antibacterial activity against pET28a-NDM-1 positive Escherichia coli BL21(DE3) isolates assessed as streptomycin MIC incubated for 18 to 24 hrs by CLSI based broth microdilution method; assay type: functional; conditions: time 18-24 hrs
Escherichia coli [14] = test: Synergistic antibacterial activity against pET28a NDM-1 positive Escherichia coli BL21(DE3) isolates assessed as fractional Inhibitory concentration index incubated for 18 to 24 hrs in presence of colistin by CLSI based broth microdilution method; assay type: functional; conditions: time 18-24 hrs

O=c1c(O)c(-c2ccc(O)c(O)c2)oc2cc(O)ccc12 [FISETIN]
MIC (Escherichia coli [1]): 0.01 µg/mL
fractional inhibitory concentration index (FICI) (Escherichia coli [2]): 0.96
fractional inhibitory concentration index (FICI) (Escherichia coli [3]): 1.13
fractional inhibitory concentration index (FICI) (Escherichia coli [4]): 1.13
IC50 [5]: 25.98 µg/mL (≈ 90.8 µM)
MIC (Escherichia coli [6]): 6.67 µg/mL
fractional inhibitory concentration index (FICI) (Escherichia coli [7]): 0.38
fractional inhibitory concentration index (FICI) (Escherichia coli [8]): 0.79
Activity (Bacteria [9]): -25 kcal/mol
MIC (Escherichia coli [10]): 512 µg/mL
inhibition (Bacteria [11]): Active
fractional inhibitory concentration index (FICI) (Escherichia coli [12]): 1.13
Activity (Mus musculus): 60%
MIC (Escherichia coli [13]): 42.7 µg/mL
fractional inhibitory concentration index (FICI) (Escherichia coli [14]): 1.13
